The record followed here is patent US10519101B2, “Trans-cyclooctene amino and hydroxy acids and their use in multiple cycloaddition reactions for labeling of molecules” (EUROPEAN MOLECULAR BIOLOGY LABORATORY, priority 2014, dated 2019).

Data set [1] is described as follows: Stability of UAAs by 1H-NMR without thiols. The format is physicochemical. As to conditions: dPBS (pH 7.4)/dioxane-d8 (v/v 1:1); rt, 37° C., 60° C.; 72 h. As to the method: Therefore, 0.1 M NaOH (for E. coli cells) and DMSO (for mammalian cells) are well suited solvents for the preparation of stock solutions for biological experiments. However, stock solutions were stored at −20° C. and thaw 30 min before usage.
Taking the properties of the purified compounds into account, these conditions resemble the nearest physiological conditions possible, as they prevail in biological experiments (living cells, aqueous buffered solutions of proteins) ((a) B. R. Varga, M. Kallay, K. Hegyi, S. Beni, P. Kele, Chemistry 2012, 18, 822-828; b) R. van Geel, G. J. Pruijn, F. L. van Delft, W. C. Boelens, Bioconjugate chemistry 2012, 23, 392-398).

Another data set deals with HEK293T cells. Put plainly: Pulse-chase dual-color labeling of insulin receptor IR^TAG. The format is cell-based. On the procedure:
For insulin receptor experiments, HEK293T cells were maintained in Dulbecco's Modified Eagle's Medium—DMEM (high glucose—4.5 g/l) supplemented with 10% FBS (Sigma), 1% L-glutamine (Invitrogen, Palo Alto, USA) and 1% Pen-Strep (Invitrogen) in a 5% CO2 atmosphere at 37° C. Cells were passaged every 2-3 days up to 15-20 passages. For microscopy, cells were seeded on 4-well chambered Lab-Tek #1.0 borosilicate coverglass (ThermoFisher, Ma USA) 15-24 h prior to transfections. Transfections were performed with JetPrime reagent (PegLab, Erlangen, Germany) according to the manufacturer's recommendations. In short, for double-transfections with IR and tRNA^Pyl/PylRS^AF vectors we used plasmids in 1:1 ratio keeping total amount of DNA at 1 μg. UAAs were added after the transfections in two pulses (see FIG. 2a). UAAs were dissolved in DMSO (250 mM stock of PrK; 100 mM stock of TCO*) or 20% formic-acid DMSO (500 mM stock of BCN; 250 mM stock of SCO). Each UAA was used at a final concentration of 250 μM. After the 2nd UAA pulse, cells were rinsed with fresh medium and kept overnight in DMEM.
In the morning following transfections, medium was exchanged to serum-free high glucose DMEM […], in which all the subsequent washing and labeling steps were also performed. The transfected cells were then labeled according to the following protocols. […]

The nature of data set [2]: FRET assay of labeling kinetics of GFP^TAG→UAA with Me-Tet-Cy3. To be noted: tested experimental conditions of the FRET assay; listed as SCO. As to the method: For observation of labeling kinetics, GFP^TAG→UAA was expressed with 1-5 (for structures of UAAs see FIG. 1a). E. coli lysate was adjusted to a final GFP concentration of 200 nM based on absorbance spectra. H-Tet-Atto532 7 or Me-Tet-Cy3 8 (see FIG. 4), respectively, were added to a final concentration of 2 μM and fluorescence spectra (excitation at λ=450 nm, emission λ=470-650 nm) were recorded at different time points. The experiments were carried out in a total volume of 2 ml and continuous stirring. 1 mM stocks of the dyes in DMSO were used. Successful labeling of GFP^TAG→UAA was monitored by Foerster resonance energy transfer (FRET) from the GFP-chromophore (serving as a Donor, D) to the synthetic fluorophore (Acceptor, A) when covalently attached. In the individual spectra this is visible by a decrease of GFP-fluorescence (around λ=503-506 nm) and a simultaneous increase of Atto532- (λ=551 nm) or Cy3-fluorescence (λ=563 nm), respectively, over time (shown exemplarily for GFP^TAG→3 (TCO*) in the left panel of FIG. 5). […] Note that time point “0 min” is defined as the time point about 15 s after pipetting the dye to the protein solution. […]

The target of the next data set is T1, tRNA^Pyl/PylRS^AF (Methanosarcina mazei, UniProt Q8PWY1, Y306A/Y384F).
T1 construct: expressed in transfected cells; host or cells: E. coli Top10 (Invitrogen), co-transformed with pEvolv tRNA^Pyl/PylRS^AF and pBAD GFP^Y39TAG
Put plainly: Recombinant expression of GFP^TAG→UAA in E. coli (amber suppression, UAA incorporation). As to conditions: for expression yield of GFP^TAG→UAA (Coomassie SDS-PAGE): compared with TCO; for protein yields / incorporation rate compared with compound 2: E. coli, 1 mM UAA, GFP^Y39TAG; for incorporation rate compared with compound 2: FIG. 12. The format is cell-based.

Data set [3] is described as follows: Stability of trans-cyclooctenyl isomers against thiols by 1H-NMR. The format is physicochemical. To be noted: two equivalents of cysteamine, 60° C., ten days (240 h). As to the method:
In order to test for stability against thiols, UAAs 2-4 were separately combined with two equivalents of cysteamine hydrochloride in dPBS/dioxane-d8 (v/v 1:1), NMR tubes were tightly sealed, and incubated at rt, 37° C., or 60° C. ^1H-NMR spectra were measured after 24 h of incubation and later time points (in case of 3). […] For all three trans-cyclooctene-containing UAAs, conversion of the trans-cyclooctenyl-form to its corresponding cis-cyclooctenyl-form was observed (FIG. 8b). […] These numbers were obtained by comparing the integrals for the double bond protons and the —CHO— protons (if possible/applicable) before and after the heat treatment as it was done before by others for similar compounds ((a) B. R. Varga, M. Kallay, K. Hegyi, S. Beni, P. Kele, Chemistry 2012, 18, 822-828; b) R. van Geel, G. J. Pruijn, F. L. van Delft, W. C. Boelens, Bioconjugate chemistry 2012, 23, 392-398; J. Yang, J. Seckute, C. M. Cole, N. K. Devaraj, Angew Chem Int Ed Engl 2012, 51, 7476-7479). Observations at different temperatures were consistent with the expectation that the higher the temperature, the faster/easier the isomerization. Isomerization to the cis-form continued in samples kept at rt or 37° C. after 24 h (data not shown).

Data set [4] is described as follows: Long time stability of the covalent bond in labeled proteins (FRET). As to conditions: labeled with Me-Tet-Cy3, excess filtered off, 4 h to 76 h. As to the method:
To proof the stability of the formed covalent bonds between TCO* and the dye-Tet in a SPIEDAC reaction, long time FRET experiments were carried out. Basically, the same FRET assay as described above was used to test whether the fluorophores stays covalently attached to the protein or not over a period of 36 h. 200 nM GFP^TAG→3 were separately reacted with 2 μM Me-Tet-Cy3 at room temperature (rt) and the ratio between D and A fluorophore was followed over time.
In another experiment, Ni-NTA-purified GFP^TAG→UAA (1-4) was labeled with Me-Tet-Cy3 (2 h, 37° C.). Excess Me-Tet-Cy3 was filtered off (˜2 h). 200 nM labeled GFP^TAG>UAA+Cy3 (with 1-4) were followed over time by FRET as described above. Note that the first data point was taken approximately 4 h after adding the tetrazine to the proteins. No significant changes between the FRET ratio measured after 4 h and after 76 h were observed (FIG. 7).

A short description of data set [5]: 1H-NMR assay of orthogonality of seSPIEDAC and SPIEDAC reactions. The format is physicochemical. To be noted: 5 mm dienophile, 10 mm tetrazine, DMSO-d6, 10 min at room temperature.
Method: Stock solutions of the dienophiles in DMSO-d6 with a final concentration of 10 mm were prepared. A 20 mm stock of the formic acid salt of (4-(6-methyl-1,2,4,5-tetrazine-3-yl)phenyl)methanamine (termed as methyl tetrazine or Me-Tet-NH2) in DMSO-d6 was prepared, too. As control experiment, either the dienophile or the diene (Me-Tet-NH2) were mixed with DMSO-d6 1:1 (v/v; 760 μl total volume) to yield a final concentration of 5 mm or 10 mm, respectively, in the NMR tube. To confirm whether a dienophile reacts with the diene (Me-Tet-NH2) or not, the corresponding stocks were mixed 1:1 (v/v; 760 μl total volume) to yield a final concentration of 5 mm of the dienophile and 10 mm of the diene in the NMR tube. The samples were incubated for 10 min at room temperature before analyzed by ^1H-NMR.

Molecules are shown by their SMILES. Entries after “also recorded” stand apart in the source; their conditions may differ.

T1 sequence (Q8PWY1 whole entry Y306A/Y384F): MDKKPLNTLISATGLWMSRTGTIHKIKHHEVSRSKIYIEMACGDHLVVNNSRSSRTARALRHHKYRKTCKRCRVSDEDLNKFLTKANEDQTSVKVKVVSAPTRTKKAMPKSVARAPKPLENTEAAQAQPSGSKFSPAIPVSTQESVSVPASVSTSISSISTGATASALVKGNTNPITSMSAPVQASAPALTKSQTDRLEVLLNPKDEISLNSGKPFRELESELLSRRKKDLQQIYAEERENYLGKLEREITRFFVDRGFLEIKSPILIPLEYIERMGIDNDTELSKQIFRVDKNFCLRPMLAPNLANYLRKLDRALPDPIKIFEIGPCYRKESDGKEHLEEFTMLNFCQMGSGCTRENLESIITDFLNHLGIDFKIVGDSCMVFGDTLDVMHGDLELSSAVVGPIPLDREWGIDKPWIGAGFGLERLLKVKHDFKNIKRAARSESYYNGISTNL

As for `N[C@@H](CCCCNC(=O)OC1CC/C=C/CCC1)C(=O)O` (stereo partly drawn) [Compound 2, N-ε-((trans-Cyclooct-4-en-1-yloxy)carbonyl)-L-lysine], in data set [1], the “stability by 1H-NMR” value is on record as “remained un-changed”.
As to `N[C@@H](CCCCNC(=O)OC1C#CCCCCC1)C(=O)O` (stereo partly drawn) [Compound 5, N-ε-((Cyclooct-2-yn-1-yloxy)carbonyl)-L-lysine], in the data set with HEK293T cells (TCO* and SCO, Me-Tet-Cy5 then H-Tet-Atto532, 10 min), the “labeling of IR (confocal)” value is “bright labeling of the IR in the plasma membrane for both channels”. Also, the “Reactivity with Me-Tet (in words)” value in data set [2] is “basically no detectable reactivity; also recorded: no substantial reactivity with Me-Tet”.
For the molecule `N[C@@H](CCCCNC(=O)OC1C/C=C/CCCC1)C(=O)O` (stereo partly drawn) [Compound 4, N-ε-((trans-Cyclooct-3-en-1-yloxy)carbonyl)-L-lysine], the “stability by 1H-NMR” value in data set [1] is recorded as “remained un-changed”. At tRNA^Pyl/PylRS^AF, the “expression yield of GFP^TAG→UAA (Coomassie SDS-PAGE)” value (shortened to “expression yield of GFP^TAG→UAA”) was “higher expression yields than the TCO”.
Turning to `N[C@@H](CCCCNC(=O)OC1/C=C/CCCCC1)C(=O)O` (stereo partly drawn) [Compound 3, N-ε-((trans-Cyclooct-2-en-1-yloxy)carbonyl)-L-lysine], the “stability by 1H-NMR” value in data set [1] is reported as “remained un-changed”. Moreover, the “trans-form left after ten days” value in data set [3] is “more 3 (TCO*) was left in its trans-form than for 2 (TCO) and 4 (TCO^#) after 24 h”. For the same molecule, the “stability of covalent bond, FRET ratio over time” value in data set [4] was “consistent FRET values over time”. Also, at tRNA^Pyl/PylRS^AF, the protein yields is 0.4 mg/L, the “incorporation rate compared with compound 2” value is recorded as “more readily incorporated than compound 2 by about a factor of two” and the “expression yield of GFP^TAG→UAA” value is on record as “higher expression yields than the TCO”.
As for `N[C@@H](CCCCNC(=O)OCC1C2CCC#CCCC21)C(=O)O` (some centres unmarked) [Compound 1], in data set [4], the “stability of covalent bond, FRET ratio over time” value was “consistent FRET values over time”. The “labeling of IR (confocal)” value in the data set with HEK293T cells (TCO* pulse, BCN chase, Me-Tet-Cy5, quencher, H-Tet-Atto532) is on record as “no signal in the Atto532 channel was observed”.
With `N[C@@H](CCCCNC(=O)OC1/C=C/CCCCC1)C(=O)O` (stereo in doubt) [Compound 3b, N-ε-((trans-Cyclooct-2-en-1-yloxy)carbonyl)-L-lysine], on tRNA^Pyl/PylRS^AF, the protein yields was 0.4 mg/L, the “incorporation rate compared with compound 2” value is on record as “more readily incorporated than compound 2 by about a factor of two” and the “expression yield of GFP^TAG→UAA” value is recorded as “higher expression yields than the TCO”.
For the molecule `OC1CC2C=CC1C2` (centres unmarked) [5-norbornene-2-ol], the “reaction with tetrazine Me-Tet-NH2 by 1H-NMR” value in data set [5] is “No new signals were detected”.
Take `N[C@@H](CCCCNC(=O)OC1/C=C/CCCCC1)C(=O)O` (stereo in doubt) [Compound 3a, N-ε-((trans-Cyclooct-2-en-1-yloxy)carbonyl)-L-lysine]: on tRNA^Pyl/PylRS^AF, the protein yields was 0.4 mg/L, the “incorporation rate compared with compound 2” value was “more readily incorporated than compound 2 by about a factor of two” and the “expression yield of GFP^TAG→UAA” value was “higher expression yields than the TCO”.
